These results are taken from patent publication US6921770B2 (priority 2000, dated 2005).

In the assay the test system is rice blast fungi. The assay is classed as in vivo, Pyricularia grisea.
On to `Br.Cc1ccc(N=c2scc(CC(=O)Nc3cccc(Cl)c3)n2C)cc1Cl` [Compound 62, 2-(3-chloro-4-methylphenylimino)-3-methyl-4-[N-(3-chlorophenyl)carbamoylmethyl]-1,3-thiazol-4-ine hydrobromide], for which the “Inhibiting Ratio (%) (at 250 ppm)” value is given as 100%.
Under `CC(C)Oc1cc(N=c2scc(CC(=O)Nc3ccc(Br)cc3)n2C)c(F)cc1Cl.Cl` [Compound 185, 2-(4-chloro-5-isopropoxy-2-fluorophenylimino)-3-methyl-4-[N-(4-bromophenyl)carbamoylmethyl]-1,3-thiazol-4-ine hydrochloride] stands 97%.
Under `COc1ccc(NC(=O)Cc2csc(=Nc3cc(Cl)cc(Cl)c3)n2C)cc1.Cl` [Compound 102, 2-(3,5-dichlorophenylimino)-3-methyl-4-[N-(4-methoxyphenyl)carbamoylmethyl]-1,3-thiazol-4-ine hydrochloride] stands 93%; under `Cc1ccc(NC(=O)Cc2csc(=Nc3ccc(OC(F)(F)F)cc3)n2C)cc1Cl.Cl` [Compound 231, 2-(4-trifluoromethoxyphenylimino)-3-methyl-4-[N-(3-chloro-4-methylphenyl)carbamoylmethyl]-4-thiazoline hydrochloride], 93%.
The figure for `Br.Cn1c(CC(=O)Nc2cccc(C(F)(F)F)c2)csc1=Nc1cccc(C(F)(F)F)c1` [Compound 7, 2-(3-trifluoromethylphenylimino)-3-methyl-4-[N-(3-trifluoromethylphenyl)carbamoylmethyl]-1,3-thiazol-4-ine hydrobromide] is 97%; for `CCCCc1ccc(N=c2scc(CC(=O)Nc3ccc(OC)cc3)n2C)cc1` [Compound 334, 2-[4-(n-butyl)phenylimino]-3-methyl-4-[N-(4-methoxyphenyl)carbamoylmethyl]-1,3-thiazol-4-ine] it is 96%; for `Br.Cn1c(CC(=O)Nc2cccc(Cl)c2)csc1=Nc1cccc([N+](=O)[O-])c1` [Compound 18, 2-(3-nitrophenylimino)-3-methyl-4-[N-(3-chlorophenyl)carbamoylmethyl]-1,3-thiazol-4-ine hydrobromide] it is 93%.
For `Br.COc1ccc(NC(=O)Cc2csc(=Nc3ccc(OC(C)C)cc3)n2C)cc1` [Compound 313, 2-(4-isopropoxyphenylimino)-3-methyl-4-[N-(4-methoxyphenyl)carbamoylmethyl]-1,3-thiazol-4-ine hydrobromide], the “Inhibiting Ratio (%) (at 250 ppm)” value stood at 100%.
The figure for `Cl.Cn1c(CC(=O)Nc2ccccc2F)csc1=Nc1ccc(OC(F)(F)F)cc1` [Compound 79, 2-(4-trifluoromethoxyphenylimino)-3-methyl-4-[N-(2-fluorophenyl)carbamoylmethyl]-1,3-thiazol-4-ine hydrochloride] is 90%; for `Br.COc1ccc(N=c2scc(CC(=O)Nc3cccc(C(F)(F)F)c3)n2C)cc1` [Compound 36, 2-(4-methoxyphenylimino)-3-methyl-4-[N-(3-trifluoromethylphenyl)carbamoylmethyl]-1,3-thiazol-4-ine hydrobromide] it is 98%.
Under `Cc1ccc(NC(=O)Cc2csc(=Nc3ccc(F)cc3F)n2C)cc1Cl.Cl` [Compound 232, 2-(2.4-difluorophenylimino)-3-methyl-4-[N-(3-chloro-4-methylphenyl)carbamoylmethyl]-4-thiazoline hydrochloride] stands 92%; under `Br.CC(C)=CCOc1cc(N=c2scc(CC(=O)Nc3ccccc3)n2C)c(F)cc1Cl` [Compound 70, 2-(4-chloro-2-fluoro-5-(3,3,-dimethylallyloxy)phenylimino)-3-methyl-4-(N-phenylcarbamoylmethyl)-1,3-thiazol-4-ine hydrobromide], 96%; under `Br.Cn1c(CC(=O)Nc2ccccc2)csc1=Nc1ccc(F)c(Cl)c1` [Compound 43, 2-(3-chloro-4-fluorophenylimino)-3-methyl-4-(N-phenylcarbamoylmethyl)-1,3-thiazol-4-ine hydrobromide], 93%.
As to `Cl.Cn1c(CC(=O)Nc2ccc(Br)cc2)csc1=Nc1cccc(Br)c1` [Compound 137, 2-(3-bromophenylimino)-3-methyl-4-[N-(4-bromophenyl)carbamoylmethyl]-1,3-thiazol-4-ine hydrochloride], the “Inhibiting Ratio (%) (at 250 ppm)” value came out at 97%.
Under `COc1ccc(NC(=O)Cc2csc(=Nc3ccc(OC(F)(F)F)cc3)n2C)cc1.Cl` [Compound 209, 2-(4-trifluoromethoxyphenylimino)-3-methyl-4-[N-(4-methoxyphenyl)carbamoylmethyl]-1,3-thiazol-4-ine hydrochloride] stands 97%.
In the case of `Br.COc1ccc(NC(=O)Cc2csc(=Nc3ccccc3)n2C)cc1` [Compound 306, 2-phenylimino-3-methyl-4-[N-(4-methoxyphenyl)carbamoylmethyl]-1,3-thiazol-4-ine hydrobromide], the “Inhibiting Ratio (%) (at 250 ppm)” value stood at 93%.
Under `Br.Cn1c(CC(=O)Nc2ccccc2)csc1=Nc1cccc(C(F)(F)F)c1` [Compound 1, 2-(3-trifluoromethylphenylimino)-3-methyl-4-(N-phenylcarbamoylmethyl)-1,3-thiazol-4-ine hydrobromide] stands 75%; under `Br.Cn1c(CC(=O)Nc2cccc(C(F)(F)F)c2)csc1=Nc1ccc(C(F)(F)F)cc1` [Compound 8, 2(4-trifluoromethylphenylimino)-3-methyl-4-[N-(3-trifluoromethylphenyl)carbamoylmethyl]-1,3-thiazol-4-ine hydrobromide], 90%; under “2-(3-fluorophenylimino)-3-methyl-4-[N-(methoxyphenyl)carbamoylmethyl]-1,3-thiazol-4-ine [Compound 337]”, 95%.
`Br.Cn1c(CC(=O)Nc2cccc(Cl)c2)csc1=Nc1ccc(F)cc1F` [Compound 68, 2-(2,4-difluorophenylimino)-3-methyl-4-[N-(3-chlorophenyl)carbamoylmethyl]-1,3-thiazol-4-ine hydrobromide]: the “Inhibiting Ratio (%) (at 250 ppm)” value amounted to 95%.
For `Br.Cn1c(CC(=O)Nc2ccccc2)csc1=Nc1ccc(C(F)(F)F)cc1` [Compound 2, 2-(4-trifluoromethylphenylimino)-3-methyl-4-(N-phenylcarbamoylmethyl)-1,3-thiazol-4-ine hydrobromide], the “Inhibiting Ratio (%) (at 250 ppm)” value was found to be 86%.
In the case of `Br.Cn1c(CC(=O)Nc2cccc(Cl)c2)csc1=Nc1ccc(OC(F)(F)F)cc1` [Compound 58, 2-(4-trifluoromethoxyphenylimino)-3-methyl-4-[N-(3-chlorophenyl)carbamoylmethyl]-1,3-thiazol-4-ine hydrobromide], the “Inhibiting Ratio (%) (at 250 ppm)” value is on record as 96%.
Under `Br.Cc1ccc(NC(=O)Cc2csc(=Nc3ccc(Cl)cc3Cl)n2C)cc1` [Compound 49, 2-(2,4-dichlorophenylimino)-3-methyl-4-[N-(4-methylphenyl)carbamoylmethyl]-1,3-thiazol-4-ine hydrobromide] stands 100%; under `COc1ccc(NC(=O)Cc2csc(=Nc3cc(C)ccc3OC)n2C)cc1.Cl` [Compound 198, 2-(2-methoxy-5-methylphenylimino)-3-methyl-4-[N-(4-methoxyphenyl)carbamoylmethyl]-1,3-thiazol-4-ine hydrochloride], 95%.
With `COc1ccc(NC(=O)Cc2csc(=Nc3ccc(C)cc3C)n2C)cc1.Cl` [Compound 196, 2-(2,4-dimethylphenylimino)-3-methyl-4-[N-(4-methoxyphenyl)carbamoylmethyl]-1,3-thiazol-4-ine hydrochloride], the “Inhibiting Ratio (%) (at 250 ppm)” value is on record as 92%.
Under `COc1ccc(NC(=O)Cc2csc(=Nc3cc(OC(C)C)c(Cl)cc3F)n2C)cc1.Cl` [Compound 208, 2-(4-chloro-5-isopropoxy-2-fluorophenylimino)-3-methyl-4-[N-(4-methoxyphenyl)carbamoylmethyl]-1,3-thiazol-4-ine hydrochloride] stands 97%; under `COc1ccc(NC(=O)Cc2csc(=Nc3ccc(Cl)cc3)n2C)cc1.Cl` [Compound 104, 2-(4-chlorophenylimino)-3-methyl-4-[N-(4-methoxyphenyl)carbamoylmethyl]-1,3-thiazol-4-ine hydrochloride], 93%; under `Cl.Cn1c(CC(=O)Nc2ccc(Cl)cc2)csc1=Nc1ccc(Br)cc1` [Compound 130, 2-(4-bromophenylimino)-3-methyl-4-[N-(4-chlorophenyl)carbamoylmethyl]-1,3-thiazol-4-ine hydrochloride], 98%.
The figure for `Br.Cn1c(CC(=O)Nc2ccccc2)csc1=Nc1ccc(Cl)c(Cl)c1` [Compound 325, 2-(3,4-dichlorophenylimino)-3-methyl-4-N-phenylcarbamoylmethyl-1,3-thiazol-4-ine hydrobromide] is 97%; for `CC(C)Oc1cc(N=c2scc(CC(=O)Nc3ccc(C#N)cc3)n2C)c(F)cc1Cl.Cl` [Compound 226, 2-(4-chloro-5-isopropoxy-2-fluorophenylimino)-3-methyl-4-[N-(4-cyanophenyl)carbamoylmethyl]-4-thiazoline hydrochloride] it is 92%.
Under `Cc1ccc(N=c2scc(CC(=O)Nc3ccc(C)c(Cl)c3)n2C)c(C)c1.Cl` [Compound 227, 2-(2,4-dimethylphenylimino)-3-methyl-4-[N-(3-chloro-4-methylphenyl)carbamoylmethyl]-4-thiazoline hydrochloride] stands 97%; under `Cc1cc(Br)ccc1N=c1scc(CC(=O)Nc2ccc(Br)cc2)n1C.Cl` [Compound 142, 2-(4-bromo-2-methylphenylimino)-3-methyl-4-[N-(4-bromophenyl)carbamoylmethyl]-1,3-thiazol-4-ine hydrochloride], 98%; under `Br.CC(C)=CCOc1cc(N=c2scc(CC(=O)Nc3ccccc3)n2C)ccc1Cl` [Compound 22, 2-(4-chloro-3-(3,3-dimethylallyloxy)phenylimino)-3-methyl-4-(N-phenylcarbamoylmethyl)-1,3-thiazol-4-ine hydrobromide], 97%.
